{
  "source": "paper PMC12196235",
  "about": "“Enhancing the Pharmacological Properties of Triterpenes Through Acetylation: An Anticancer and Antioxidant Perspective” (Molecules, 2025)",
  "key": {"[1]": {"test_system": "HeLa (human cervical epithelioid carcinoma)", "assay": "MTT assay, HeLa", "assay_type": "cell-based", "details": "IC50 HDF / IC50 HeLa", "description": "(§1) All the cell lines and mediums were obtained from the American Type Culture Collection (ATCC) supplied by LGC-Standards (Lomianki, Poland). Human cancer cell lines were cultured as follows: HeLa (human cervix carcinoma) and KB (human oral squamous carcinoma) lines were cultured in DMEM (Dulbecco’s Modified Eagle’s Medium); MCF-7 (human breast carcinoma) and A-549 (human lung carcinoma) were cultured in RPMI 1640 medium; PC-3 (human prostate carcinoma) was cultured in F-12K medium; SKOV-3 (human ovarian cystadenocarcinoma) was cultured in McCoy’s modified medium; HDF (human normal dermal fibroblasts) was cultured in Fibroblast Basal Medium. Each medium was supplemented with 10% fetal bovine serum, 1% L- glutamine and 1% penicillin/streptomycin solution. The cell lines were kept in an incubator at 37 °C.\n(§2) All the tested cell lines (HeLa, KB, MCF-7, A-549, PC-3, SKOV-3 and HDF) were subjected to MTT assay. In short, this assay is based on the reaction between mitochondria enzymes (dehydrogenases) of tested cell lines and 3-(4,5-dimethylthiazol-2-yl)-2,5-diphenyltetrazolium bromide (MTT). The final product of this reaction gives violet formazan crystals. The number of live cells is proportional to the amount of formazan and is represented by the violet dye reagent. The details of the experiments are given in [19]."}, "[2]": {"test_system": "KB (human oral squamous carcinoma)", "assay": "MTT assay, KB", "assay_type": "cell-based", "details": "IC50 HDF / IC50 KB", "description": "as §1, §2"}, "[3]": {"test_system": "MCF-7 (human breast carcinoma)", "assay": "MTT assay, MCF-7", "assay_type": "cell-based", "details": "IC50 HDF / IC50 MCF-7", "description": "as §1, §2"}, "[4]": {"test_system": "A-549 (human lung carcinoma)", "assay": "MTT assay, A-549", "assay_type": "cell-based", "details": "IC50 HDF / IC50 A-549", "description": "as §1, §2"}, "[5]": {"test_system": "PC-3 (human prostate carcinoma)", "assay": "MTT assay, PC-3", "assay_type": "cell-based", "description": "as §1, §2"}, "[6]": {"test_system": "SKOV-3 (human ovarian carcinoma)", "assay": "MTT assay, SKOV-3", "assay_type": "cell-based", "description": "as §1, §2"}, "[7]": {"test_system": "HDF (human dermal fibroblasts)", "assay": "MTT assay, normal HDF", "assay_type": "cell-based", "details": "Homo sapiens, Fibroblast, read-out: IC50 (±SD), HDF", "description": "as §1, §2"}, "CUPRAC antioxidant assay": {"assay": "CUPRAC antioxidant assay", "details": "calculated from Trolox standard curve", "description": "The results are presented as % inhibition of the copper(II) ions and Trolox equivalent calculated from the standard curve (Figure 9) and as % inhibition of the DPPH radical and Trolox equivalent, calculated from the standard curve (Figure 10).\nThe CUPRAC reagent (7.5 mM ethanolic 96% neocuproine solution, 10 mM CuCl2 × H2O solution and an ammonium acetate buffer of pH 7.0) and DPPH reagent (2,2-diphenyl-1-picrylhydrazyl 0.2 mM solution) were applied.\nThe CUPRAC method measures the reducing power of a sample by quantifying its ability to convert the Cu-neocuproine reagent complex to the Cu(I) form. In contrast, the DPPH assay relies on the ability of an antioxidant to donate a hydrogen atom or an electron to the stable DPPH radical, resulting in its reduction and subsequent color change. The results are presented as % inhibition of the copper(II) ions and Trolox equivalent calculated from the standard curve (Figure 9) and as % inhibition of the DPPH radical and Trolox equivalent, calculated from the standard curve (Figure 10). The spectroscopic detection in CUPRAC and DPPH assays was conducted with Synergy H1 Multi-Mode Microplate Reader (BioTek Instruments, Inc., Winooski, VT, USA). The details of the experiments are given in [102]."}, "[8]": {"test_system": "HeLa (human cervical epithelioid carcinoma)", "details": "MTT assay, data published earlier, read-out: IC50 (±SD), HeLa; cited from earlier work"}, "[9]": {"test_system": "KB (human oral squamous carcinoma)", "details": "MTT assay, data published earlier; cited from earlier work"}, "[10]": {"test_system": "MCF-7 (human breast carcinoma)", "details": "MTT assay, data published earlier, read-out: IC50 (±SD), MCF-7; cited from earlier work"}, "[11]": {"test_system": "A-549 (human lung carcinoma)", "details": "MTT assay, data published earlier, read-out: IC50 (±SD), A-549; cited from earlier work"}, "[12]": {"test_system": "MCF-7 (human breast carcinoma)", "details": "ref 55; read-out: anticancer IC50 (MCF-7); cited from earlier work"}, "[13]": {"test_system": "HeLa (human cervical epithelioid carcinoma)", "details": "ref 56; read-out: anticancer IC50 (HeLa); cited from earlier work"}, "[14]": {"test_system": "A-549 (human lung carcinoma)", "details": "ref 56; read-out: anticancer IC50 (A-549); cited from earlier work"}, "[15]": {"test_system": "MDA MB-231 (human epithelial adenocarcinoma)", "set-up": "method as in doi:10.1002/slct.201803101", "details": "ref 56; read-out: anticancer IC50 (MDA MB-231); cited from earlier work"}},
  "note": "Values joined by “and” are separate entries in the source; they are usually repeats but may differ in a detail not shown here. Equal values may be shown once. Read-outs that look alike come from different tables or passages of the source.",
  "data": [
    {"smiles": "C=C(C)[C@@H]1CC[C@]2(C)CC[C@]3(C)[C@H](CC[C@@H]4[C@@]5(C)CC[C@H](O)C(C)(C)[C@@H]5CC[C@]43C)[C@@H]12", "note": "[6a, lupeol]", "values": [
      {"measurement": "Selectivity index (SI), HeLa", "setting": "[1]", "value": 0.77},
      {"measurement": "Selectivity index (SI), KB", "setting": "[2]", "value": 0.57},
      {"measurement": "Selectivity index (SI), MCF-7", "setting": "[3]", "value": 0.56},
      {"measurement": "Selectivity index (SI), A-549", "setting": "[4]", "value": 0.63},
      {"measurement": "IC50", "setting": "[5]; Homo sapiens, MTT assay, PC-3, read-out: IC50 (±SD), PC-3", "value": 14.5, "unit": "µM"},
      {"measurement": "Selectivity index (SI), PC-3", "setting": "[5]; IC50 HDF / IC50 PC-3", "value": 2.00},
      {"measurement": "IC50", "setting": "[6]; Homo sapiens, SK-OV-3, MTT assay, SKOV-3, read-out: IC50 (±SD), SKOV-3", "value": 14.6, "unit": "µM"},
      {"measurement": "Selectivity index (SI), SKOV-3", "setting": "[6]; IC50 HDF / IC50 SKOV-3", "value": 1.99},
      {"measurement": "IC50", "setting": "[7]", "value": 29, "unit": "µM"},
      {"measurement": "Trolox Equivalent, CUPRAC Assay", "setting": "CUPRAC antioxidant assay", "value": "0.136 mg/mL and 0.136 ± 0.00593 mg/mL"},
      {"measurement": "IC50", "setting": "[8]", "value": 37.7, "unit": "µM"},
      {"measurement": "IC50", "setting": "[9]", "value": 51.2, "unit": "µM"},
      {"measurement": "IC50", "setting": "[10]", "value": 51.8, "unit": "µM"},
      {"measurement": "IC50", "setting": "[11]", "value": 45.7, "unit": "µM"},
      {"measurement": "IC50", "setting": "[12]", "value": 80, "unit": "µM"},
      {"measurement": "IC50", "setting": "[13]", "value": 31.9, "unit": "µM"},
      {"measurement": "IC50", "setting": "[14]", "value": 64.8, "unit": "µM"},
      {"measurement": "IC50", "setting": "[15]", "value": 46.1, "unit": "µM"}
    ]}
  ]
}
